Assay results: article PMC10545747, “Development of cyclopeptide inhibitors of cGAS targeting protein-DNA interaction and phase separation” (Nature Communications, 2023)
Values joined by “and” are separate entries in the source; they are usually repeats but may differ in a detail not shown here. Equal entries are not always repeated. Square brackets hold non-standard residues; d marks the D form. Peptide text beside a SMILES is read from it.

Tests used:
THP1-Lucia ISG cells = experiment: Luciferase reporter assay, dsDNA stimulation; type: cell-based, human; set-up: Type I interferon response, luciferase activity, Fig. 1c / luciferase activity, Fig. 2a: scale not given here
Source text: To screen direct cGAS inhibitors targeting protein-DNA interface from our developed focused library of macrocyclic peptides, we applied an RNA-based fluorescent biosensor for 2’,3’-cGAMP to detect cGAS activity in vitro (Supplementary Fig. 1a)[49]. The formation of 2’,3’-cGAMP from ATP and GTP was catalyzed by recombinant human cGAS enzyme (hcGAS-ΔN, residues 147–522, Supplementary Fig. 1b) in the presence of ISD (interferon stimulatory DNA, a 45-bp dsDNA), which was readily quantified by the RNA-based fluorescent biosensor and was further confirmed by ion exchange chromatography (Supplementary Fig. 1c). […] Subsequently, a total of 90 macrocyclic peptides were screened at a concentration of 20 μM (Fig. 1a and Supplementary Fig. 1e), and 4 hits (XQ2, XQ8, XQ19, and XQ46) were obtained for further testing at a cut-off of 40% inhibition (Supplementary Table 1). To evaluate the inhibitory effect of the hits against cGAS in cells, we employed real-time quantitative PCR (qPCR) to examine mRNA levels of IFNΒ1 in THP1 cells. The reported cGAS inhibitor RU.521 was used as the positive control, and the non-active peptide XQ28 in the screening assay was used as the negative control. […] The inhibition of cGAS by these hits was further confirmed in the reporter cell line THP1-Lucia ISG (Invivogen) that expresses secreted luciferase induced by an IRF3-inducible ISG54 promoter (Fig. 1c). The discrepancy between the inhibitory effect of the hits in protein and cellular assays may be attributed to their different cellular permeability.
THP1-Lucia ISG cells (Invivogen) were seeded into a 96-well plate and incubated with RU.521 (Invivogen) or XQ2 for the indicated time, and then transfected with dsDNA by lipofectamine 2000 (Invitrogen) or infected by HSV-1 with the indicated titer for 24 h. The supernatant was collected and 50 μL QUANTI-Luc Luciferase reagent (Invivogen) was added to 20 μL supernatants per well, and luciferase luminescence was detected by a microplate reader (BioTek Synergy H1) immediately.

THP1 cells = experiment: ELISA of IFN-β and CXCL10 after HSV-1 infection; type: cell-based, human
Procedure: THP1 cells were seeded into 96-well plates, and cell culture supernatants were collected and analyzed by ELISA kits for human IFNβ levels (R&D Systems, Cat# DY814-05) and human CXCL10 levels (R&D Systems, Cat# DY266-05) according to the manufacturer’s instructions. Mice serum was collected and analyzed by ELISA kits for mouse IFNβ levels (R&D Systems, Cat# DY8234-05) and mouse CXCL10 levels (R&D Systems, Cat# DY466-05) according to the manufacturer’s protocols.

[1] = tested on: Trex1 knockdown L929 cells; experiment: qPCR of Ifnb1 and Cxcl10 mRNA after Trex1 siRNA; type: cell-based, mouse
Procedure: The indicated cells were stimulated with either ISD (Sangon Biotech), HSV-1 (Provided by Dr. Zhengfan Jiang), HSV60mer (Sangon Biotech), SATE-cddA[70], 2’3’-cGAMP (Invivogen, Cat# tlrl-nacga23-1), ADU-S100 (MedChemExpress, Cat# HY-12885A) or Poly(I:C) (Invivogen, Cat# tlrl-pic) after XQ2 or XQ2B treatment. Total RNA was isolated from indicated cells that incubated with the drugs for indicated time or mice tissues by using NucleoZOL reagent (MACHEREY-NAGEL) according to the manufacturer’s instructions. The quantifications of mRNA levels were carried out by real-time PCR using a PerfectStart® Uni RT&qPCR Kit (TransGen Biotech) on the QuantStudio 5 qPCR machine (Applied Biosystems). Samples were carried out in triplicate and the target CT values were normalized to GAPDH CT values. Primers of qPCR used in this study can be found in Supplementary Table S2.
siRNA of TREX1 (siTREX1) was transfected into the indicated cells by Lipofectamine RNAiMAX (Invitrogen) according to the manufacturer’s instructions. Human siTREX1, mouse siTrex1 and negative control siRNAs were purchased from Sangon Biotech. The sequences of siRNAs oligonucleotides can be found in Supplementary Table S2.
Supplementary Fig. 9. XQ2B reduces interferon expression induced by Trex1 deficiency. […]
Trex1 knockdown L929 cells were treated with DMSO or XQ2B (20 μM) for 24 h, and the mRNA levels of Trex1 (c),
Ifnb1 and Cxcl10 (d) mRNA was measured by qPCR. (c) p < 0.0001, (d) p = 0.003 (Ifnb1); p = 0.0003 (Cxcl10). (e, f) […]
Source data are provided as a Source Data file.

in vivo = conditions: C57BL/6, mouse, iv, 10 mg/kg
Procedure: Whole blood samples were collected in EDTA-K2 surface-coated tubes at 0.083, 0.25, 0.5, 1, 2, 5, 7, 24 h post administration. The results were analyzed by LC-MS.

## CC(C)C[C@@H]1NC(=O)[C@H](CCCNC(=N)N)NC(=O)[C@H](C(C)C)NC(=O)[C@@H]2CCCN2C(=O)[C@@H](Cc2ccccc2)NC(=O)[C@H](CC(C)C)NC(=O)[C@H](CCCNC(=N)N)NC(=O)[C@H](C(C)C)NC(=O)[C@H](C)NC(=O)[C@@H](Cc2ccccc2)NC1=O [XQ2, Cyclo (LfAVRLfPVR)] (cyclo(L[dF]AVRL[dF]PVR))
THP1-Lucia ISG cells
  dsDNA-induced luciferase reporter signal: inhibited dsDNA-induced signaling in THP1 cells in a dose-dependent manner with an inhibitory activity comparable to that of RU.521
THP1-Lucia ISG cells; Mock (no dsDNA), compound 10 μM, replicate values
  luciferase activity, Fig. 2a: 0.1339 and 0.107 and 0.1281
THP1-Lucia ISG cells; Mock, 1.25 μM
  luciferase activity, Fig. 2a: 0.09057 and 0.08624 and 0.1133
THP1-Lucia ISG cells; Mock, 2.5 μM
  luciferase activity, Fig. 2a: 0.08177 and 0.0892 and 0.09714
THP1-Lucia ISG cells; Mock, 5 μM
  luciferase activity, Fig. 2a: 0.1148 and 0.09368 and 0.09512
THP1-Lucia ISG cells; dsDNA 24 h, 1.25 μM
  luciferase activity, Fig. 2a: 0.7893 and 0.9483 and 1.24
THP1-Lucia ISG cells; dsDNA 24 h, 2.5 μM
  luciferase activity, Fig. 2a: 1.035 and 1.02 and 0.8001
THP1-Lucia ISG cells; dsDNA 24 h, 5 μM
  luciferase activity, Fig. 2a: 0.8667 and 0.7097 and 0.78
THP1-Lucia ISG cells; dsDNA 24 h, compound 10 μM, 3 h pretreatment, replicate values
  luciferase activity, Fig. 2a: 0.4481 and 0.3329 and 0.2712
THP1-Lucia ISG cells; dsDNA 24 h, replicate values
  Type I interferon response, luciferase activity, Fig. 1c: 0.5575 and 0.4465 and 0.4391
THP1 cells; 10 μM
  production of IFN-β and CXCL10 upon HSV-1 infection: significantly inhibited the production of IFN-β and CXCL10
THP1 cells; HSV-1 1×10^5 pfu 24 h, XQ2 10 μM
  IFN-β protein, ELISA, Fig. 5a: 82.1785 and 88.212 and 94.6416
THP1 cells; HSV-1 2×10^4 pfu 24 h, XQ2 10 μM
  CXCL10 protein, ELISA, Fig. 5b: 81.286 and 72.3045 and 81.612
THP1 cells; HSV-1 5×10^4 pfu 24 h, XQ2 10 μM
  CXCL10 protein, ELISA, Fig. 5b: 1196.79 and 1171.64 and 1198.54

## CC(C)C[C@@H]1NC(=O)[C@H](CCCNC(=N)N)NC(=O)[C@H](C(C)C)NC(=O)[C@@H]2CCCN2C(=O)[C@@H](Cc2ccccc2)NC(=O)[C@H](CC(C)C)NC(=O)[C@H](CCCNC(=N)N)NC(=O)[C@H]([C@@H](C)O)NC(=O)[C@H](C)NC(=O)[C@@H](Cc2ccccc2)NC1=O [XQ2B] (cyclo([dF]ATRL[dF]PVRL))
[1]; Fig. S9d, Trex1 knockdown (siTrex1 +) L929 cells, XQ2B +, individual replicates, siTrex1 alone 5.56-7.04
  Relative mRNA level Cxcl10: 1.176 and 1.276 and 1.118
[1]; Fig. S9d, Trex1 knockdown (siTrex1 +) L929 cells, XQ2B +, individual replicates, siTrex1 alone 23.9-27.1
  Relative mRNA level Ifnb1: 15.103 and 18.4861 and 15.5105
[1]; L929, 20 μM, 24 h
  expression of Ifnb1, Cxcl10 with Trex1-siRNA: markedly inhibited the expression of these genes in mouse L929 and human THP1 cells with Trex1-siRNA
In vivo
  half-life: 1.1 h
In vivo; Conc (ng/ml), Fig. S11a
  level at 0.083 h: 101 µg/mL
  level at 0.25 h: 63.6 µg/mL
  level at 0.5 h: 50.4 µg/mL
